# Test results: publication PMC2854715, “Oxpholipin 11D: An Anti-Inflammatory Peptide That Binds Cholesterol and Oxidized Phospholipids” (PLoS ONE, 2010)
# Where two headings read alike, the source gives them in different places. Non-standard residues stand in square brackets, D forms with d.
# Legend:
# Bovine albumin = target: T1, Bovine albumin (Bos taurus, UniProt P02769); conditions: SPR; mean ± SEM; read-out: KD ± SEM, bovine albumin (control); cited from earlier work
# T1 construct: purchased Sigma-Aldrich
# T1 sequence (P02769 25-607): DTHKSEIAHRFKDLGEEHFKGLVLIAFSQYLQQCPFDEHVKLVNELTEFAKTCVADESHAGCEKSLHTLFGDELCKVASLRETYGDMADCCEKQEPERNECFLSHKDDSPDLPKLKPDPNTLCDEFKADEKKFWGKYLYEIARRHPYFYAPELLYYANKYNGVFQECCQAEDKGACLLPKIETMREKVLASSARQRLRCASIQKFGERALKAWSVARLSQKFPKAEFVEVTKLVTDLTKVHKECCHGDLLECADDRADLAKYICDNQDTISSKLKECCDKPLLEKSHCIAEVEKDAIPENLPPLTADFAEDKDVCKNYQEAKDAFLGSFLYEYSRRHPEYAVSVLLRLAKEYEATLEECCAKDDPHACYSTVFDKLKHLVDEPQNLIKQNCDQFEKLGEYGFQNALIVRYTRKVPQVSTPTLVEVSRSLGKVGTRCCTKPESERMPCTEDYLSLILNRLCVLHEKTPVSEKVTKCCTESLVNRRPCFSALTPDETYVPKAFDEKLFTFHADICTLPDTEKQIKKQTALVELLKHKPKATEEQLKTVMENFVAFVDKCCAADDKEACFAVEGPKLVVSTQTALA
# Description: (§1) Table 3 Binding of OxP-11D and D-4F to oxidized and nonoxidized (phospho)lipids and sterols. | column: apoA-I; KD ± SEM (M) / D-4F
# [1] = test system: LDL-induced monocyte chemotaxis in cultured human aortic endothelial cells (HAEC); experiment: Monocyte chemotaxis assay (LDL-treated HAEC cultures); format: cell-based; conditions: for Monocyte chemotactic activity, Inflammatory Index (II): peptide 1 µg/ml, HAEC treated with LDL 250 µg/ml 8 h, standardized to LDL, II<1 anti-inflammatory, Figure 1; for Monocyte chemotactic activity, dose response: Figure 2
# Procedure: Normal human monocytes were isolated as previously described. Human aortic endothelial cells (HAEC) were isolated and maintained as previously reported. Acquisition and use of these cells was in accordance with protocols approved by the UCLA Human Research Subject Protection Committee.
# (§2) As previously described, [64], HAEC cells were treated with native LDL (250 µg/ml) in the absence or presence of HDL or tested peptides for 8 h. After these cultures were washed, the medium was replaced by fresh Medium 199 and the cultures were incubated for an additional 8 h. This culture medium was collected and assayed for monocyte chemotactic activity using chambers purchased from Neuroprobe (Cabin John, MD). After monocytes were added to the upper compartment, the chamber was incubated for 60 min at 37°C and subsequently disassembled. The membrane was rinsed, air dried, fixed with 1% glutaraldehyde, stained with 0.1% crystal violet dye, and 12 standardized high power fields were examined microscopically. The number of migrated monocytes was expressed as the mean ±SD of monocytes counted. Values obtained in the absence of HDL were normalized to a value of 1.0. Normalized values >1.0 after HDL addition were considered to be pro-inflammatory, and values <1.0 as being anti-inflammatory.
# apoE deficient mice = experiment: In vivo activity in apoE deficient mice: HDL inflammatory index
# Procedure: as §2
# ApoE null mice on a C57BL/6J background, originally from Jackson Laboratories (Bar Harbor, ME), were maintained in a breeding colony in the Department of Laboratory and Animal Medicine at the David Geffen School of Medicine at UCLA. The mice were maintained on a chow diet (Ralston Purina, St. Louis, MO).
# Six hours later, and with continued fasting, blood was removed from the retro-orbital sinus under mild isoflurane anesthesia, and anticoagulated with heparin (2.5 U/ml). Plasma was obtained and fractionated by FPLC. HDL-containing fractions were tested in HAEC cultures for their ability to inhibit LDL-induced monocyte chemotactic activity. All procedures conformed to regulations of the UCLA Animal Research Committee. An HDL inflammatory index was determined using the standard monocyte chemotaxis assay. Indices >1 were interpreted as pro-inflammatory, and indices <1 as anti-inflammatory.
# [2] = SPR, mean ± SEM, cited from earlier work
# Description: as §1
# human RBCs = experiment: Inhibition of CDC-mediated hemolysis; format: cell-based; conditions: data not shown
# [3] = read-out: KD ± SEM, 12(S)-HPETE
# [4] = read-out: KD ± SEM, 13(S)-HPODE
# [5] = read-out: KD ± SEM, 15(S)-HPETE
# [6] = read-out: KD ± SEM, arachidonic acid
# [7] = read-out: KD ± SEM, linoleic acid
# [8] = read-out: KD ± SEM, palmitic acid
# [9] = peptide 0.01 µg/ml (10 ng/ml) versus 1 µg/ml
# [10] = peptide 0.1 µg/ml versus 1 µg/ml
Substance,Kd (Bovine albumin) [µM],"Monocyte chemotactic activity, Inflammatory Index (II) [1]","Kd ([2]; read-out: KD ± SEM, 5(S)-HPETE) [µM]","Kd ([2]; read-out: KD ± SEM, 9(S)-HODE) [µM]","Kd ([2]; read-out: KD ± SEM, 12(S)-HETE) [µM]","Kd [2, 3] [µM]","Kd ([2]; read-out: KD ± SEM, 13(S)-HODE) [µM]","Kd [2, 4] [µM]","Kd ([2]; read-out: KD ± SEM, 15(S)-HETE) [µM]","Kd [2, 5] [µM]","Kd ([2]; read-out: KD ± SEM, KOdiA-PC) [µM]","Kd ([2]; read-out: KD ± SEM, PEIPC) [µM]","Kd ([2]; read-out: KD ± SEM, POVPC) [µM]","Kd [2, 6] [µM]","Kd [2, 7] [µM]","Kd [2, 8] [µM]","Monocyte chemotactic activity, dose response [1, 9]","Monocyte chemotactic activity, dose response [1, 10]",further results
"Ac-DWFKAFYDKVAEKFKEAF-NH2 (Ac-[dD][dW][dF][dK][dA][dF][dY][dD][dK][dV][dA][dE][dK][dF][dK][dE][dA][dF]-NH2) [D-4F, a prominent apoA-I-mimetic peptide, Ac-…-NH2, reference compound]",3.9,,,,,,,,,,,,,,,,,,
"Ac-DWFKAFYDKVAEKFKEAF-NH2 [D-4F, a prominent apoA-I-mimetic peptide, Ac-…-NH2, reference compound]",,very similar activity,0.018,0.015,0.018,0.17,0.011,0.021,0.022,0.051,0.00058,6e-05,0.0024,0.012,0.015,0.67,,,"HDL Inflammatory Index in vivo (apoE deficient mice; 1 mg/kg subcutaneously, fasting female apoE deficient mice, HDL isolated 6 h after dose, normalized to LDL, Figure 3): equally effective; Kd ([2]; read-out: KD ± SEM, 4β-hydroxycholesterol): 31 µM; Kd ([2]; read-out: KD ± SEM, 20(S)-hydroxycholesterol): 3.9 µM; Kd ([2]; read-out: KD ± SEM, 22(S)-hydroxycholesterol): 15 µM; Kd ([2]; read-out: KD ± SEM, 24(S)-hydroxycholesterol): 4.3 µM; Kd ([2]; read-out: KD ± SEM, 25-hydroxycholesterol): 2.4 µM; Kd ([2]; read-out: KD ± SEM, PGPC): 0.0063 µM; Kd ([2]; read-out: KD ± SEM, cholesterol): 0.092 µM"
Aib-RE-Ctb-Val-R-Leu-Val-Trp-E-Trp-Trp-RE-Val-NH2 [OxP-13],,very similar activity,,,,,,,,,,,,,,,reduced activity substantially,relatively small decrease in activity,
RE-Ctb-Thr-G-Leu-Ala-Trp-E-Trp-Trp-RT-Val-NH2 [OxP-2],,,,,,,,,,,,,,,,,,,Inhibition of CDC-mediated hemolysis (human RBCs): enhanced the peptide's ability to inhibit CDC-mediated hemolysis
RE-Dpa-Thr-G-Leu-Ala-Trp-E-Trp-Trp-RT-Val-NH2 [OxP-11],,very similar activity,,,,,,,,,,,,,,,reduced activity substantially,relatively small decrease in activity,"HDL Inflammatory Index in vivo (apoE deficient mice; lower doses 0.5 and 0.1 mg/kg subcutaneously, apoE deficient mice, Figure 3B): considerably less active than L-4F"
apoA-I: human apoA-I,0.021,,1600 ± 0.3,1300 ± 0.5,850 ± 0.033,820 ± 0.027,1800 ± 0.3,1200 ± 0.6,1300 ± 0.1,1000 ± 0.2,21,51,31,0.01,0.0065,2,,,"KD ± SEM, 4β-hydroxycholesterol [2]: BND; KD ± SEM, 20(S)-hydroxycholesterol [2]: BND; KD ± SEM, 22(S)-hydroxycholesterol [2]: BND; KD ± SEM, 24(S)-hydroxycholesterol [2]: BND; KD ± SEM, 25-hydroxycholesterol [2]: BND; KD ± SEM, cholesterol [2]: BND"
